Measurements published in patent publication US20140329863A1 (priority 2011, published 2014).
Where two headings read alike, the source gives them in different places.

Tests used:
[1] = Hepatic microsomal stability, dog; type: in vitro ADME; details: for half-life at 1 μM: beagle, liver microsomes, pH 7.4
Protocol: These were diluted 500-fold into 1 mL of microsomal incubation mixture to yield a final concentration of 1 μM. The incubation mixture was composed of 100 mM phosphate buffer, pH 7.4, and NADPH regenerating system (BD Biosciences NADPH Regenerating System Solutions A & B). This mixture was preincubated at 37° C. for 5 min in an Eppendorf Thermo mixer, and the reaction initiated by addition of 0.5 mg (25 μl of a 20 mg/mL solution) of liver microsomes. Aliquots (100 μl) were withdrawn at 0, 5, 15, 30, and 60 min, and added to […] ACN containing internal standard. […] The percentage of solute remaining at the end of the incubation was used to determine species-specific values of scaled intrinsic clearance, hepatic clearance, and predicted hepatic extraction based upon the calculations below (Obach, 1999).
for which mg microsomal protein/gm liver was 45 for all species, and gm liver/kg body weight were 32 for dog, 88 for mouse, 40 for rat and 25 for human.
for which ER estimates the amount of compound cleared during a single pass through the liver (Low ER <0.3, moderate ER 0.3-0.7, high ER>0.7).

[2] = […]
[3] = Multiple-dose (three-day) pharmacokinetic studies in FVB mice, drug in liquid diet; type: in vivo, mouse; details: for concentration at 3 days: FVB, mouse, oral
Protocol: Aminothiazole analog (e.g., 4.5 g of 27) was added to 15 mL of pure PEG400, vortexed and sonicated to ensure dissolution, then stored at −4° C. until needed. This highly concentrated PEG400 solution was subsequently diluted to final dosing concentrations, where the volume added was composed of homogenized solid rodent feed, cocoa (taste masking agent), and water. Wild-type FVB mice weigh ˜25 gm and typically drink 20 mL of liquid diet per day, allowing an estimate of daily drug consumption. A single dosing cohort consisted of three mice in a shared cage and liquid diet was provided at the start of the study in sufficient volume to last for the entire three-day trial (˜200 mL). At the end of the three-day dosing period, animals were euthanized by CO2, followed by collection of plasma (cardiac puncture) and removal of whole brain. Heparinized blood was centrifuged to separate plasma and both plasma and brain samples were stored at −80° C. prior to analysis. Plasma samples were prepared for analysis by precipitating proteins and reconstituting the remaining fraction with HPLC mobile phase. Brain samples were typically prepared by four-fold dilution with water after weighing, then homogenized using bead-beater or Polytron™ resulting in a highly concentrated solution that was further diluted with mobile phase as appropriate in preparation for bioanalytical analysis using LC-MS. Analysis was by LC-MS (Shimadzu dual-HPLC pumps, C18 analytical column, with detection using an Applied Biosystems API-4000 triple quadrupole mass spectrometer).
Ten compounds were selected from among the 34 2-AMTs for three-day multiple-dose PK studies at PO doses ranging from 40-210 mg/kg. Selection was based on diversity in potency, chemical structure, and a range of physicochemical properties. We used a liquid diet to facilitate easy drug administration, as well as serve as the daily source of all water and food. This approach was chosen because the mouse bioassay studies that would be used to assess drug effects on survival would be expected to run for 110 to 400 days, or more; gavage dosing for such a long period is not feasible and more stressful to mice. For the multiple-dose PK studies, 4.5 g of the 2-AMT analogs was added to 15 mL of pure PEG400, vortexed and sonicated to ensure dissolution, then stored at −4° C. until needed. This highly concentrated PEG400 solution was subsequently diluted to final dosing concentrations and added to the rodent liquid diet, cocoa (taste-masking agent), and water.
Wild-type FVB mice weigh ˜25 g and typically drink 20 mL of liquid diet per day, allowing an estimate of daily drug consumption. A single dosing cohort consisted of three mice in a shared cage and liquid diet was provided at the start of the study in sufficient volume (˜200 mL) to last for the entire three-day period. At the end of the dosing period, animals were euthanized by CO2, followed by collection of plasma (cardiac puncture) and removal of whole brain. Samples were processed and stored as described above for the 10 mg/kg single-dose studies.
Plasma and brain homogenate samples were extracted using a protein-precipitation method and analyzed by specific LC/MS/MS methods developed for each compound dosed in vivo. The analytical method accuracy and precision were monitored by analyzing quality control (QC) samples that were prepared by the same methods as the plasma or brain homogenate samples. The brain and plasma concentration data were used to calculate the maximal concentration (Cmax), area under the concentration-time curve (AUClast), and absolute bioavailability (% F) by noncompartmental analysis with sparse sampling performed using Phoenix WinNonlin 6.1 software (Pharsight, Mountain View, Calif.).

[4] = female dog microsomes, read-out: t1/2 Dog Female
[5] = brain, 3 days in liquid diet, 40, 80, 130, 210 mg/kg/day, read-out: brain concentration
[6] = plasma, 3 days in liquid diet, 40, 80, 130, 210 mg/kg/day, read-out: plasma concentration
[7] = male dog microsomes, read-out: t1/2 Dog Male

For Cc1cccc(Nc2nc(-c3ccc(-c4ccccc4)cc3)cs2)n1 [IND24, (4-Biphenyl-4-yl-thiazol-2-yl)-(6-methyl-pyridin-2-yl)-amine], the half-life at 1 μM [1, 4] was 51 min, the half-life at 1 μM ([1]; male dog microsomes, * extrapolated, read-out: t1/2 Dog Male (extrapolated)) was 140 min and the “metabolic stability (in words)” value [2] was “stable”.
For Cc1ccc(Nc2nc(-c3cc(-c4ccccc4)no3)cs2)nc1 [IND33, (5-Methyl-pyridin-2-yl)-[4-(3-phenyl-isoxazol-5-yl)-thiazol-2-yl]-amine], the concentration at 3 days ([3]; brain, 3 days in liquid diet, 130 mg/kg dose, read-out: brain concentration) was ~30 µM and the “hepatic extraction ratio (ER)” value [2] was “lower to moderate”.
In the case of COc1ccc(-c2csc(Nc3ccc4ccccc4n3)n2)cc1OC [IND47, [4-(3,4-Dimethoxy-phenyl)-thiazol-2-yl]-quinolin-2-yl-amine], the concentration at 3 days [3, 5] is reported as ≤ 1 µM, the concentration at 3 days [3, 6] is reported as ≤ 1 µM and the “hepatic extraction ratio (ER)” value [2] is reported as “lower to moderate”.
For Cc1ccnc(Nc2nc(-c3ccncc3)cs2)c1 [IND52, (4-Methyl-pyridin-2-yl)-(4-pyridin-4-yl-thiazol-2-yl)-amine], the brain concentration ([3]; 3 days in liquid diet, 40 mg/kg dose) was “no measurable brain concentrations” and the “hepatic extraction ratio (ER)” value [2] was “higher”.
Work on Cc1ccnc(Nc2nc(-c3ccc(-c4ccccn4)s3)cs2)c1 [IND81, (4-Methyl-pyridin-2-yl)-[4-(5-pyridin-2-yl-thiophen-2-yl)-thiazol-2-yl]-amine] yielded a half-life at 1 μM [1, 4] of 26 min and a half-life at 1 μM [1, 7] of 23 min.
In the case of c1ccc2cc(Nc3nc(-c4ccncc4)cs3)ncc2c1 [IND85, Isoquinolin-3-yl-(4-pyridin-4-yl-thiazol-2-yl)-amine], the concentration at 3 days [3, 5] is reported as ≤ 1 µM, the concentration at 3 days [3, 6] is reported as ≤ 1 µM and the “hepatic extraction ratio (ER)” value [2] is reported as “higher”.
For C(=N\Nc1ccc(-c2cnco2)cc1)/c1ccncc1 [IND54304, reference compound], the “brain concentration as multiple of EC50” value ([3]; 3 days in liquid diet, 100 mg/kg/day) was ~20 ×EC50, the concentration at 3 days ([3]; brain, 3 days in liquid diet, 100 mg/kg/day, read-out: brain concentration) was ~10 µM and the half-life at 1 μM [1, 4] was 16 min. The half-life at 1 μM [1, 7] was 20 min, the “Hepatic Extraction Ratio Dog Female” value ([1]; female dog microsomes) was 0.80 and the “Hepatic Extraction Ratio Dog Male” value ([1]; male dog microsomes) was 0.79.
